In series [1] the target is T1, Cysteineless Mouse MDR3 P-glycoprotein (Mus musculus, UniProt P21447, C1070A/C1121A/C1223A/C133A/C427A/C638A/C669A/C713A/C952A).
T1 construct: made in house; host or cells: Pichia pastoris
The series is described as follows: ATP hydrolysis by purified P-glycoprotein, basal and verapamil-stimulated. The format is biochemical. Conditions: for Stimulated ATPase (% of DMSO): in the presence of verapamil; for Stimulated ATPase (% of DMSO) / Basal ATPase (% of DMSO): ± standard deviation. An excerpt: The efficacy of molecules identified using in silico methods to function as potential inhibitors of P-glycoprotein was initially tested with regard to their capability to inhibit ATP hydrolysis by purified P-glycoprotein. For this purpose, a well-established activity assay for ATP hydrolyzing enzymes that uses the oxidation of NADH to NAD+ through coupling the reactions of pyruvate kinase and lactate dehydrogenase to the hydrolysis of ATP was adapted to medium throughput conditions on 96 well plates. […] In this set-up, the effects of potential small molecule inhibitors on the ATP hydrolysis activity of P-glycoprotein were tested in duplicate or triplicate and were repeated at least two times using different enzyme preparations.
The P-glycoprotein used in these assays was a close relative of the human P-glycoprotein that is found in mice. A mutant version of the mouse P-glycoprotein where all intrinsic cysteine amino acids had been replaced by alanine residues was recombinantly expressed in the yeast Pichia pastoris and used for these initial tests. […] Prior to testing the ATP-hydrolysis activity, P-glycoprotein was incubated with phosphatidyl choline for stabilization of the enzyme during the assay.
Different concentrations of the to-be-tested small molecules were added and pre-incubated at 37° C. The ATP hydrolysis reaction was then started by adding equal volume of double concentrated ATPase cocktail. The final ATP concentration in the reaction was 2 mM. The reaction was allowed to proceed for 20 minutes, the rate of ATP hydrolysis was calculated using the molar extinction coefficient of NADH, and the one-to-one relationship of ATP hydrolyzed and NADH oxidized.
Evaluation of mode of inhibition of P-glycoprotein by Group 1 and Group 2 variants of compound 29. To assess the mode of inhibition of P-gp by the novel variants of P-gp inhibitor 29, ATP hydrolysis by P-gp was evaluated in the presence or absence of the variants. […] Murine P-gp (MDR3) expressed in Pichia pastoris that had all naturally occurring cysteines replaced with alanine, was used^45, 46. It is widely assumed that the ATP hydrolytic rate of P-gp is stimulated in the presence of transport substrates when compared to ATP hydrolysis in the absence of transport substrates. Assays comparing these rates can therefore be useful not only in identifying inhibitors of P-gp catalyzed ATP hydrolysis, but also to potentially infer whether a compound might be a transport substrate if basal ATPase rates are stimulated by the addition of a compound.

Series [2] deals with T1, Cysteineless Mouse MDR3 P-glycoprotein. In words: SL-ATP binding to P-gp by ESR spectroscopy. Conditions: SL-ATP titration in presence of compound. An excerpt:
Determination of the possible mode of ATP hydrolysis inhibition by the identified P-glycoprotein inhibitors. The mode of hydrolysis of ATP by P-glycoprotein was investigated by measuring the maximal binding stoichiometry and binding affinity of an analog of ATP, SL-ATP, and by Electron Spin Resonance (ESR) spectroscopy, similar to in both the presence and absence of the identified inhibitors.
The high-field signal of the freely mobile, unbound SL-ATP is compared and is used to calculate the amount of ATP-analog bound to P-glycoprotein. Binding of SL-ATP in the absence of any P-glycoprotein inhibitor saturated at about 2 mol of SL-nucleotide bounds per mol of P-glycoprotein.
FIGS. 2A-2D are plots showing the effects of P-glycoprotein ATP hydrolysis inhibitors on nucleotide binding. Between 30 and 50 microM Pgp were incubated with 50 microM inhibitor compound. Increasing amounts of SL-ATP were added. The ESR signal of the free SL-ATP in the presence of P-glycoprotein and inhibitor was compared to that in the absence of P-glycoprotein. The graphs represent at least 3 individual studies each using 3 to 5 different P-glycoprotein preparations.

The next series deals with P-gp (Homo sapiens, UniProt P08183). Conditions: for Transport substrate for P-gp: not told. Here is the method:
Stimulation of basal ATPase by 29-variants was used as an indicator that a compound may be a P-gp transport substrate. Effects on stimulated P-gp ATPase activity indicated whether a compound directly interfered with ATP usage by the protein (***, p<0.001; **, p<0.01; *, p<0.1; NS, not significant). Quantitative cellular accumulation of 29-variants was performed using LC-MS/MS and is presented as a ratio of the cellular amounts of 29-variants in the presence of P-gp inhibitor, tariquidar, divided by amounts accumulated in its absence. […] Binding of an ATP analog, SL-ATP, to P-gp was used to determine whether ATP binding to P-gp was affected by the 29-variants. Values+/−standard deviations are shown for at least three different P-gp preparations and three independent SL-ATP titration experiments. The values for SL-ATP binding in the presence of 29 were taken directly from Brewer et al. (2014).
Intracellular accumulation of compound 29 variants. Cell accumulation assays for each of the 29 variants were performed as in reference^28 to more directly assess whether the compounds were indeed transport substrates for P-gp.

In series [3] the target is Normal Human MDR1 P-glycoprotein (Homo sapiens, UniProt P08183). In words: ATP hydrolysis by human P-gp assembled into membrane nanodiscs. As to conditions: human MDR1 P-gp in nanodiscs. It counts as biochemical. An excerpt:
To assess whether the observed discrepancies of compounds stimulating basal P-gp ATPase activity but not being transport substrates of the human pump in the cell culture assessments were due to the fact that these biochemical assays used a cysteineless variant of the mouse MDR3 P-glycoprotein, the experiments were repeated using normal human MDR1 P-gp. In order to stabilize the human protein for the activity assays, the protein was assembled into membrane nanodiscs as described herein.

The subject of the next series is DU145TXR. The series is described as follows: Resensitization of DU145TXR to paclitaxel by 29 variants (MTT cell viability). Conditions: for Fold vs PTX ÷ 29: compared to parental compound 29. It counts as cell-based, human. An excerpt:
The Group 1 ChemGen/docking routine produced variants of P-gp inhibitor 29 resensitize a multidrug resistant, P-gp overexpressing prostate cancer cell line to paclitaxel. The mitochondrial reduction potential of cells is often used as an indicator for cell viability using MTT assays^40-42. Using these assays it was observed that the five Group 1 derivatives of 29 predicted through the ChemGen/docking routine and synthesized here, 216, 227, 231, 541 and 551, re-sensitized the P-gp overexpressing prostate cancer cell line, DU145TXR^33, to the chemotherapeutic, paclitaxel (FIG. 9, showing results of assays at concentrations of 3 μM, 5 μM, 7 μM, and 10 μM).
Cytotoxicity of the chemotherapeutic, paclitaxel (PTX) to P-gp overexpressing prostate cancer cells, DU145TXR, was determined in the absence and presence of the ChemGen designed 29-variants, 216, 227, 231, 541 and 551. For each experimental compound IC50 values of PTX alone or in the presence of inhibitors, fold improvement of PTX sensitivity in the presence of inhibitor, and fold improvement of PTX sensitivity by variants compared to parental compound 29 are given.

Setting [4] is: without added transport substrate.
Where [5] appears, read: 3 μM inhibitor, fold improvement of PTX sensitivity vs PTX alone.

Normal Human MDR1 P-glycoprotein, sequence (P08183 whole entry): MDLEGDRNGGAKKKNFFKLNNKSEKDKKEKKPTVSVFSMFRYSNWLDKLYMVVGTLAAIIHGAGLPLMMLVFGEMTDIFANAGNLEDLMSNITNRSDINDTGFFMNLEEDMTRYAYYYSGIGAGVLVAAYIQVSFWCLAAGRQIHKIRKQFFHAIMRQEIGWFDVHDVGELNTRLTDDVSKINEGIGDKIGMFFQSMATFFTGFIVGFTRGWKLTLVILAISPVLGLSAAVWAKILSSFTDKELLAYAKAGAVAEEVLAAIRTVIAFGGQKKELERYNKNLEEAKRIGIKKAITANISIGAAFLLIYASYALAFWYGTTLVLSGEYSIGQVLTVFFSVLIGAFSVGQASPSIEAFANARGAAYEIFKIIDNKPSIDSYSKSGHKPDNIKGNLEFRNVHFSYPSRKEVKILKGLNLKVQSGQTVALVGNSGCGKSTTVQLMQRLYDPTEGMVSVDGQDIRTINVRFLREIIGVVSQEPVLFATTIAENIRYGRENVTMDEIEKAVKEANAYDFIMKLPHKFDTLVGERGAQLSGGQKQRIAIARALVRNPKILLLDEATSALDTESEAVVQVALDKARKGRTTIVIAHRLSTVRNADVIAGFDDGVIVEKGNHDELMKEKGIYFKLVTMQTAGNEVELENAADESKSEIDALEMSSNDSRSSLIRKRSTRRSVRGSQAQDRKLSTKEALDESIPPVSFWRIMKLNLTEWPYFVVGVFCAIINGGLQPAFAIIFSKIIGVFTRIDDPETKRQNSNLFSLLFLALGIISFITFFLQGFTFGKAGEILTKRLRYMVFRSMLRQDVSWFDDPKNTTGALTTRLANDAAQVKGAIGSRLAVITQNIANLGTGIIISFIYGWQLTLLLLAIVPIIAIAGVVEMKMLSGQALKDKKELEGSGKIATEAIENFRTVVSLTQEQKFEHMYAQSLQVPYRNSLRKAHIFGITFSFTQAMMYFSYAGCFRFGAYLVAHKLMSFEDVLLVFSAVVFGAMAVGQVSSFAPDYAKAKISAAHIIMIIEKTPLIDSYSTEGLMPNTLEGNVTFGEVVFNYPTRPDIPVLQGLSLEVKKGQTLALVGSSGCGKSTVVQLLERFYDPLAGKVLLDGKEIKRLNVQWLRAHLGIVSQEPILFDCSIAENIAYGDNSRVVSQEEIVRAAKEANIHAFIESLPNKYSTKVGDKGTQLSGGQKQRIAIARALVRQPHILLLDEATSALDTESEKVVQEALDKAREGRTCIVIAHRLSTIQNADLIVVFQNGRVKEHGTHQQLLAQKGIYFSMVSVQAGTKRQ
P-gp, sequence (P08183 whole entry): as above
T1 sequence (P21447 whole entry C133A/C427A/C638A/C669A/C713A/C952A/C1070A/C1121A/C1223A): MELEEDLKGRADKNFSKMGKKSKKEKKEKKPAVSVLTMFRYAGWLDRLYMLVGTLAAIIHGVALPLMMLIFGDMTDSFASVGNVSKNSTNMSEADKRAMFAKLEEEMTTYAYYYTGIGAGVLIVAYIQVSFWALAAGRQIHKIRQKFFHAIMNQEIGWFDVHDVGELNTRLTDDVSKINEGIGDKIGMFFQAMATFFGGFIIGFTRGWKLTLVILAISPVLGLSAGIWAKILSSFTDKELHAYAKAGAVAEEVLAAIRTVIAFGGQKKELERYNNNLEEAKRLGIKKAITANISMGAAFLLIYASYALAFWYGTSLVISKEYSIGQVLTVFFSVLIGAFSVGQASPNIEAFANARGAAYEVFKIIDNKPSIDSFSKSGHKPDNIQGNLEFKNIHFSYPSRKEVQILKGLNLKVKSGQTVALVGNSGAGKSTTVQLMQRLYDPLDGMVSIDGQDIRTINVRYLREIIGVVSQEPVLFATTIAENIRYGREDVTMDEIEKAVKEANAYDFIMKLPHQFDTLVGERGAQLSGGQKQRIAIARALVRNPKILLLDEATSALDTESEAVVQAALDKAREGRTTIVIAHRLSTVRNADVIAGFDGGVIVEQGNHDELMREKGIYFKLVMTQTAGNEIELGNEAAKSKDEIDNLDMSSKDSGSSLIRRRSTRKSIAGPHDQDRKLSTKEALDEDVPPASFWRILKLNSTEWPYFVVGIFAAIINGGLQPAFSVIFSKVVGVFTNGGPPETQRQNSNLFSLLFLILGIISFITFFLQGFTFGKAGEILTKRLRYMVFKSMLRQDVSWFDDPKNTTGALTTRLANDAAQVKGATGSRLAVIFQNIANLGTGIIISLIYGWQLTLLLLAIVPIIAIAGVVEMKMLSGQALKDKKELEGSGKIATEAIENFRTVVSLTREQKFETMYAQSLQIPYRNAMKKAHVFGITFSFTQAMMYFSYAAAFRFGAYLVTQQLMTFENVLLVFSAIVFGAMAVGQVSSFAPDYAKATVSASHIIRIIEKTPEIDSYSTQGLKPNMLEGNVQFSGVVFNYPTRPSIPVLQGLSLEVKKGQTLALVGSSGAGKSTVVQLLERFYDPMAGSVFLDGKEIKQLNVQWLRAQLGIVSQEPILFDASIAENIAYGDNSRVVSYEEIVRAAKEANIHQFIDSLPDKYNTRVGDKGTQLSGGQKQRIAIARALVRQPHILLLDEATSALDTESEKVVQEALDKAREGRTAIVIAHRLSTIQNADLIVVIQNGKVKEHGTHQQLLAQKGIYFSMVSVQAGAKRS

As to `Cc1cc(C)c(-c2cc(NC(=O)CSCC(=O)NC(c3ccccc3)c3ccccc3)n(-c3ccccc3)n2)cc1C` [SMU29-280], the “Stimulated ATPase (% of DMSO)” value is recorded as 116 ± 4 % of DMSO in series [1] and 54 ± 7 % of DMSO in series [3]. Besides, the “Effect on basal ATPase” value in series [1] (without added transport substrate, listed as 280) was “stimulated basal ATPase only marginally or with no statistical significance”. Moreover, the “Basal ATPase (% of DMSO)” value is listed as 148 ± 4 % of DMSO in series [1] (setting [4]) and 76 ± 8 % of DMSO in series [3]. The “Maximum ATP binding mol SL-ANP bound/mol P-gp” value in series [2] was determined as 1.6 ± 0.1 mol SL-ANP bound/mol P-gp. In addition, on P-gp, the “Intracellular accumulation in the presence versus absence of TQR” value is recorded as “did not show significantly different intracellular accumulations”.

For the compound `Cc1cc(C)c(-c2cc(NC(=O)CSCC(=O)N3c4ccccc4CCc4ccccc43)n(-c3ccccc3)n2)cc1C` [SMU29-227], the “Stimulated ATPase (% of DMSO)” value in series [1] was 50 ± 2 % of DMSO; in series [3] it was 62 ± 5 % of DMSO. For the same compound, the “Basal ATPase (% of DMSO)” value is 88 ± 4 % of DMSO in series [1] (setting [4]) and 83 ± 7 % of DMSO in series [3]. Also, the “Fold vs PTX ÷ 29” value was found to be 3.8 Fold in the series on DU145TXR (3 μM inhibitor, listed as 227); 3.7 Fold in the series with DU145TXR (5 μM inhibitor); 10 Fold in the series with DU145TXR (7 μM inhibitor); 5 Fold in the series with DU145TXR (10 μM inhibitor). The “Fold vs PTX” value is 13 Fold in the series on DU145TXR (setting [5]); 41 Fold in the series with DU145TXR (5 μM inhibitor, vs PTX alone); 353 Fold in the series on DU145TXR (7 μM inhibitor, vs PTX alone); 530 Fold in the series on DU145TXR (10 μM inhibitor, vs PTX alone). Besides, in series [2], the “Maximum ATP binding mol SL-ANP bound/mol P-gp” value is on record as 1.8 ± 0.1 mol SL-ANP bound/mol P-gp.

Take `Cc1cc(C)c(-c2cc(NC(=O)CSCC(=O)NC34CC5CC(CC(C5)C3)C4)n(-c3ccccc3)n2)cc1C` [SMU29-278]: the “Stimulated ATPase (% of DMSO)” value in series [1] was 41 ± 7 % of DMSO; in series [3], 63 ± 6 % of DMSO. Besides, the “Basal ATPase (% of DMSO)” value is 78 ± 4 % of DMSO in series [1] (setting [4]) and 74 ± 6 % of DMSO in series [3]. For the same compound, the “Maximum ATP binding mol SL-ANP bound/mol P-gp” value in series [2] is on record as 1.3 ± 0.1 mol SL-ANP bound/mol P-gp. In addition, on P-gp, the “Intracellular accumulation in the presence versus absence of TQR” value was “did not show significantly different intracellular accumulations”. Also, the “Transport substrate for P-gp” value at P-gp is listed as “very unlikely to be a transport substrate”.

On to `Cc1cc(C)c(-c2cc(NC(=O)CSCC(=O)Nc3ccc4ncsc4c3)n(-c3ccccc3)n2)cc1C` [SMU29-255], for which the “Stimulated ATPase (% of DMSO)” value in series [1] is on record as 123 ± 15 % of DMSO. Further, the “Basal ATPase (% of DMSO)” value in series [1] (setting [4]) is 355 ± 7 % of DMSO. The “Maximum ATP binding mol SL-ANP bound/mol P-gp” value in series [2] is listed as 1.9 ± 0.1 mol SL-ANP bound/mol P-gp. On P-gp, the “Intracellular accumulation in the presence versus absence of TQR” value is listed as “more modest, but statistically significant increases” and the “Transport substrate for P-gp” value is “very likely to be transport substrates”. In addition, in series [3], the “Basal ATPase (% of DMSO)” value is reported as 84 ± 9 % of DMSO and the “Stimulated ATPase (% of DMSO)” value is given as 59 ± 6 % of DMSO.

For the compound `COc1cccc2c1C(=O)c1c(O)c3c(c(O)c1C2=O)C[C@@](O)(C(C)=O)C[C@@H]3O[C@H]1C[C@H](N)[C@H](O)[C@H](C)O1` [DNR, Daunorubicin, reference compound], the “Intracellular accumulation in the presence versus absence of TQR” value on P-gp is “very strong cellular accumulation”.

Turning to `COc1cc(NC(=O)CSCC(=O)Nc2cc(-c3cc(C)c(C)cc3C)nn2-c2ccccc2)cc(OC)c1OC` [SMU29-238], the “Stimulated ATPase (% of DMSO)” value in series [1] is 194 ± 22 % of DMSO. Moreover, the “Basal ATPase (% of DMSO)” value in series [1] (setting [4]) is on record as 1143 ± 46 % of DMSO. Further, in series [2], the “Maximum ATP binding mol SL-ANP bound/mol P-gp” value came out at 1.2 ± 0.1 mol SL-ANP bound/mol P-gp. Further, at P-gp, the “Intracellular accumulation in the presence versus absence of TQR” value was “very large and significant increase”; the “Transport substrate for P-gp” value is reported as “very likely to be transport substrates”. Moreover, in series [3], the “Basal ATPase (% of DMSO)” value is listed as 89 ± 7 % of DMSO and the “Stimulated ATPase (% of DMSO)” value is 61 ± 7 % of DMSO.

Regarding `Cc1cc(C)c(-c2cc(NC(=O)CSCC(=O)Nc3ccc4ccccc4c3)n(-c3ccccc3)n2)cc1C` [SMU29-231], the “Stimulated ATPase (% of DMSO)” value is given as 141 ± 18 % of DMSO in series [1] and 40 ± 3 % of DMSO in series [3]. For the same compound, the “Basal ATPase (% of DMSO)” value is 70 ± 0 % of DMSO in series [1] (setting [4]) and 70 ± 4 % of DMSO in series [3]. Besides, the “Fold vs PTX ÷ 29” value in the series with DU145TXR (3 μM inhibitor, listed as 231) is given as 4.1 Fold; in the series with DU145TXR (5 μM inhibitor) it was 4.2 Fold; with DU145TXR (7 μM inhibitor), 3.4 Fold; with DU145TXR (10 μM inhibitor), 11 Fold. Moreover, the “Fold vs PTX” value was 14 Fold in the series with DU145TXR (setting [5]); 46 Fold in the series with DU145TXR (5 μM inhibitor, vs PTX alone); 303 Fold in the series on DU145TXR (7 μM inhibitor, vs PTX alone); 1060 Fold in the series with DU145TXR (10 μM inhibitor, vs PTX alone). The “Maximum ATP binding mol SL-ANP bound/mol P-gp” value in series [2] is on record as 1.6 ± 0.1 mol SL-ANP bound/mol P-gp.

The values are drawn from US20220175777A1, “Inhibitors of Multidrug Resistance Transporter P-Glycoprotein” (Southern Methodist University, priority 2014, published 2022).
